Source: PMC3894558, “Chemical signatures and new drug targets for gametocytocidal drug development” (Scientific Reports, 2014)
Where two headings read alike, the source gives them in different places.

System: P. falciparum 3D7 gametocytes
Test: alamarBlue gametocyte viability assay, strain 3D7
Assay type: cell-based, Plasmodium falciparum
Conditions: for Max Resp: DMSO set at 0%, 100 nM epoxomicin set at -100%; call rule not given here
[1] = Malaria Box, stages III-V 3D7 gametocytes
[2] = Malaria Box, stages III-V 3D7 gametocytes, 11 concentrations, 1:3 dilution, read-out: IC50
[3] = Malaria Box, stages III-V 3D7 gametocytes, 11 concentrations, 1:3 dilution

Structure (SMILES) | IC50 (Plasmodium falciparum, 3D7, 3D7 gametocytes, stages III-V, high throughput viability assay, read-out: IC50 against gametocytes) | IC50 [2] | IC50 [3] | Max Resp (Malaria Box) | Curve Class [1]
CCOC(=O)C1=CN(C)C=C(C(=O)OCC)C1c1cc(Br)c(OCC)c(OC)c1 [MMV006656] | – | 14.8 µM | – | -72% | -2.2
CCOc1cccc(C(=O)Nc2ccc(-c3nc4ccccc4[nH]3)cc2)c1 [MMV019202] | – | – | Inactive | -23% | 4
Cc1ccc(Nc2nc(-c3ccccn3)cs2)cc1 [MMV007907] | – | 7.43 µM | – | -73% | -2.2
Cl.Clc1cc(Br)ccc1-c1ccc(CNCC2CCNCC2)o1 [MMV019918] | – | 1.87 µM | – | -106% | -1.1
CCCc1c(CC)c(=N)c2ccccc2n1C [MMV008416] | – | 37.2 µM | – | -53% | -2.2
CN(N=O)C1=C(NC2CCCCC2)C(=O)c2ccccc2C1=O [MMV667492] | – | 2.35 µM | – | -59% | -1.2
COc1ccc2nc(C)cc(Nc3cccc(O)c3)c2c1.Cl [MMV008212] | – | 29.6 µM | – | -64% | -2.2
c1ccc2cc3c(Nc4ccc(N5CCOCC5)cc4)ccnc3cc2c1 [MMV006861] | – | 18.7 µM | – | -63% | -2.2
Cc1cc(C)c2c(c1)OCN(Cc1ccccc1Cl)C2 [MMV006558] | – | 0.935 µM | – | -44% | -1.2
Cc1ccc2c(C)nc(Nc3nc(C)cc(-c4ccccc4)n3)nc2c1 [MMV007041] | – | – | Inactive | -50% | -2.2
CC(O)(c1ccc(Cl)cc1)C(CN1CCCCC1)c1ccccc1.Cl (stereo not shown) [MMV000620] | – | 9.35 µM | – | -78% | -2.2
O=C(Nc1ccc(-c2nc3cc(NC(=O)c4ccc(Cl)cc4)ccc3[nH]2)cc1)c1ccc(Cl)cc1 [MMV006962] | – | 11.8 µM | – | -94% | -2.1
c1ccc2c(NCCc3c[nH]c4ccccc34)c3ccccc3nc2c1 [MMV006513] | – | 16.6 µM | – | -85% | -2.1
Oc1c(CN2CCN(c3ccccc3F)CC2)cc(Br)c2cccnc12 [MMV000760] | – | 3.72 µM | – | -91% | -1.1
Cc1cc(NC(=O)C2c3ccccc3C(=O)N(CC(C)C)C2c2cccs2)no1 (stereo not shown) [MMV006429] | – | 3.32 µM | – | -82% | -1.1

Further lines, with some results ahead:

IC50 (Plasmodium falciparum, 3D7, 3D7 gametocytes, stages III-V, high throughput viability assay, read-out: IC50 against gametocytes) | IC50 [2] | IC50 [3] | Structure (SMILES) | Max Resp (Malaria Box) | Curve Class [1]
0.009 µM | – | – | CCC(=O)N1CCN(c2ccc(-n3c(=O)ccc4cnc5ccc(-c6ccc(N)nc6)cc5c43)cc2C(F)(F)F)CC1 [WWH030] | – | –
– | – | Inactive | CCOc1ccc(-c2nc(NC(=O)c3cccc(S(C)(=O)=O)c3)sc2C)cc1 [MMV665913] | -15% | 4
– | – | Inactive | Cc1cc(C=C2SC(=Nc3ccccc3)N(C3CCCC3)C2=O)c(C)n1-c1ccc(Cl)cc1 [MMV666688] | -20% | 4
– | 2.09 µM | – | CCCCCCc1cc2cc(-c3nc4ccccc4[nH]3)c(=Nc3ccccc3C)oc2cc1O [MMV666597] | -27% | -1.4
– | – | Inactive | CC(C)(C)C(=O)Nc1ccc(C(=O)Nc2cccc(-c3nc4ccccc4[nH]3)c2)cc1 [MMV665879] | -23% | 4
– | 29.6 µM | – | COc1ccc2nc(N)nc(C)c2c1 [MMV665897] | -66% | -2.2
– | 16.6 µM | – | CC1(c2ccccc2)Nc2ccccc2-c2nc3ccccc3n21 (stereo not shown) [MMV396715] | -84% | -2.1
– | – | Inactive | COc1ccc(Br)cc1C1Nc2ccc3ccccc3c2C2=C1C(=O)CC(c1ccccc1)C2 (stereo not shown) [MMV020885] | -29% | 4
– | – | Inactive | Cc1cc(Nc2ccc(C)c(Cl)c2)n2nc(C(F)(F)F)nc2n1 [MMV665874] | -2% | 4
